{
  "source": "ChEMBL document CHEMBL5620394",
  "about": "“Synthesis of new antiproliferative 1,3,4-substituted-pyrrolo[3,2-c]quinoline derivatives, biological and in silico insights” (Eur J Med Chem, 2023)",
  "key": {"NCI-H292": {"test_system": "NCI-H292", "assay": "Antiproliferative activity against human NCI-H292 cells assessed as inhibition of cell growth at >50 uM incubated for 4 hrs by MTS assay", "format": "functional, cell-based"}, "MCF7 [1]": {"test_system": "MCF7", "assay": "Antiproliferative activity against human MCF7 cells assessed as inhibition of cell growth at >50 uM incubated for 4 hrs by MTS assay", "format": "functional, cell-based"}, "HeLa [2]": {"test_system": "HeLa", "assay": "Antiproliferative activity against human HeLa cells assessed as inhibition of cell growth at >50 uM incubated for 4 hrs by MTS assay", "format": "functional, cell-based"}, "LA-N-5 [3]": {"test_system": "LA-N-5", "assay": "Antiproliferative activity against human LA-N-5 cells assessed as inhibition of cell growth at 10 uM incubated for 4 hrs by MTS assay", "format": "functional, cell-based"}, "[4]": {"assay": "Antiproliferative activity against human LA-N-5 cells assessed as inhibition of cell growth incubated for 4 hrs by MTS assay", "format": "functional"}, "[5]": {"assay": "Antiproliferative activity against human 16HBE14o- cells assessed as inhibition of cell growth incubated for 4 hrs by MTS assay", "format": "toxicity, cell-based", "details": "read-out: IG50"}, "HeLa [6]": {"test_system": "HeLa", "assay": "Antiproliferative activity against human HeLa cells assessed as inhibition of cell growth incubated for 4 hrs by MTS assay", "format": "functional"}, "MCF7 [7]": {"test_system": "MCF7", "assay": "Antiproliferative activity against human MCF7 cells assessed as inhibition of cell growth incubated for 4 hrs by MTS assay", "format": "functional"}, "LA-N-5 [8]": {"test_system": "LA-N-5", "assay": "Antiproliferative activity against human LA-N-5 cells assessed as reduction in cell growth at 10 to 100 uM incubated for 4 hrs by MTS assay", "format": "functional, cell-based", "details": "dose 10-100 µM"}, "CCRF-CEM": {"test_system": "CCRF-CEM", "assay": "Antiproliferative activity against human CCRF-CEM cells assessed as cell growth at 10 uM incubated for 48 hrs by sulforhodamine B assay relative to control", "format": "functional", "details": "read-out: Activity"}, "HL-60": {"test_system": "HL-60", "assay": "Antiproliferative activity against human HL-60 cells assessed as cell growth at 10 uM incubated for 48 hrs by sulforhodamine B assay relative to control", "format": "functional", "details": "read-out: Activity"}, "K562": {"test_system": "K562", "assay": "Antiproliferative activity against human K562 cells assessed as cell growth at 10 uM incubated for 48 hrs by sulforhodamine B assay relative to control", "format": "functional", "details": "read-out: Activity"}, "MOLT-4": {"test_system": "MOLT-4", "assay": "Antiproliferative activity against human MOLT-4 cells assessed as cell growth at 10 uM incubated for 48 hrs by sulforhodamine B assay relative to control", "format": "functional", "details": "read-out: Activity"}, "RPMI-8226": {"test_system": "RPMI-8226", "assay": "Antiproliferative activity against human RPMI-8226 cells assessed as cell growth at 10 uM incubated for 48 hrs by sulforhodamine B assay relative to control", "format": "functional", "details": "read-out: Activity"}, "SR": {"test_system": "SR", "assay": "Antiproliferative activity against human SR cells assessed as cell growth at 10 uM incubated for 48 hrs by sulforhodamine B assay relative to control", "format": "functional", "details": "read-out: Activity"}, "NCI-H226": {"test_system": "NCI-H226", "assay": "Antiproliferative activity against human NCI-H226 cells assessed as cell growth at 10 uM incubated for 48 hrs by sulforhodamine B assay relative to control", "format": "functional", "details": "read-out: Activity"}, "NCI-H522": {"test_system": "NCI-H522", "assay": "Antiproliferative activity against human NCI-H522 cells assessed as cell growth at 10 uM incubated for 48 hrs by sulforhodamine B assay relative to control", "format": "functional", "details": "read-out: Activity"}, "HT-29": {"test_system": "HT-29", "assay": "Antiproliferative activity against human HT-29 cells assessed as cell growth at 10 uM incubated for 48 hrs by sulforhodamine B assay relative to control", "format": "functional", "details": "read-out: Activity"}, "SNB-75": {"test_system": "SNB-75", "assay": "Antiproliferative activity against human SNB-75 cells assessed as cell growth at 10 uM incubated for 48 hrs by sulforhodamine B assay relative to control", "format": "functional", "details": "read-out: Activity"}, "UACC-257": {"test_system": "UACC-257", "assay": "Antiproliferative activity against human UACC-257 cells assessed as cell growth at 10 uM incubated for 48 hrs by sulforhodamine B assay relative to control", "format": "functional", "details": "read-out: Activity"}, "UACC-62": {"test_system": "UACC-62", "assay": "Antiproliferative activity against human UACC-62 cells assessed as cell growth at 10 uM incubated for 48 hrs by sulforhodamine B assay relative to control", "format": "functional", "details": "read-out: Activity"}, "786-0": {"test_system": "786-0", "assay": "Antiproliferative activity against human 786-0 cells assessed as cell growth at 10 uM incubated for 48 hrs by sulforhodamine B assay relative to control", "format": "functional", "details": "read-out: Activity"}, "CAKI-1": {"test_system": "CAKI-1", "assay": "Antiproliferative activity against human CAKI-1 cells assessed as cell growth at 10 uM incubated for 48 hrs by sulforhodamine B assay relative to control", "format": "functional", "details": "read-out: Activity"}, "UO-31": {"test_system": "UO-31", "assay": "Antiproliferative activity against human UO-31 cells assessed as cell growth at 10 uM incubated for 48 hrs by sulforhodamine B assay relative to control", "format": "functional", "details": "read-out: Activity"}, "PC-3": {"test_system": "PC-3", "assay": "Antiproliferative activity against human PC-3 cells assessed as cell growth at 10 uM incubated for 48 hrs by sulforhodamine B assay relative to control", "format": "functional", "details": "read-out: Activity"}, "MCF7 [9]": {"test_system": "MCF7", "assay": "Antiproliferative activity against human MCF7 cells assessed as cell growth at 10 uM incubated for 48 hrs by sulforhodamine B assay relative to control", "format": "functional", "details": "read-out: Activity"}, "MDA-MB-231": {"test_system": "MDA-MB-231", "assay": "Antiproliferative activity against human MDA-MB-231 cells assessed as cell growth at 10 uM incubated for 48 hrs by sulforhodamine B assay relative to control", "format": "functional", "details": "read-out: Activity"}, "T47D": {"test_system": "T47D", "assay": "Antiproliferative activity against human T47D cells assessed as cell growth at 10 uM incubated for 48 hrs by sulforhodamine B assay relative to control", "format": "functional", "details": "read-out: Activity"}},
  "note": "Activity calls are given as the source filed them. No cut-off for these calls is given here.",
  "data": [
    {"smiles": "CCn1c(C)c(C(C)=O)c2c(-c3ccccc3)nc3ccccc3c21", "values": [
      {"measurement": "Activity", "setting": "NCI-H292", "result": "Active"},
      {"measurement": "Activity", "setting": "MCF7 [1]", "result": "Active"},
      {"measurement": "Activity", "setting": "HeLa [2]", "result": "Active"},
      {"measurement": "Activity", "setting": "LA-N-5 [3]", "result": "Active"},
      {"measurement": "IG50", "setting": "[4]", "result": 1, "unit": "µM"},
      {"measurement": "GI50 at 4 h", "setting": "[5]", "result": 10, "unit": "µM"},
      {"measurement": "IG50", "setting": "HeLa [6]", "result": 10, "unit": "µM"},
      {"measurement": "IG50", "setting": "MCF7 [7]", "result": 10, "unit": "µM"},
      {"measurement": "Activity", "setting": "LA-N-5 [8]", "result": "Active"},
      {"measurement": "growth at 10 µM", "setting": "CCRF-CEM", "result": 88.5, "unit": "%"},
      {"measurement": "growth at 10 µM", "setting": "HL-60", "result": 100, "unit": "%"},
      {"measurement": "growth at 10 µM", "setting": "K562", "result": 99.2, "unit": "%"},
      {"measurement": "growth at 10 µM", "setting": "MOLT-4", "result": 95.2, "unit": "%"},
      {"measurement": "growth at 10 µM", "setting": "RPMI-8226", "result": 79.6, "unit": "%"},
      {"measurement": "growth at 10 µM", "setting": "SR", "result": 91.7, "unit": "%"},
      {"measurement": "growth at 10 µM", "setting": "NCI-H226", "result": 68.3, "unit": "%"},
      {"measurement": "growth at 10 µM", "setting": "NCI-H522", "result": 92.6, "unit": "%"},
      {"measurement": "growth at 10 µM", "setting": "HT-29", "result": 108, "unit": "%"},
      {"measurement": "growth at 10 µM", "setting": "SNB-75", "result": 85.1, "unit": "%"},
      {"measurement": "growth at 10 µM", "setting": "UACC-257", "result": 93.3, "unit": "%"},
      {"measurement": "growth at 10 µM", "setting": "UACC-62", "result": 88.9, "unit": "%"},
      {"measurement": "growth at 10 µM", "setting": "786-0", "result": 98.8, "unit": "%"},
      {"measurement": "growth at 10 µM", "setting": "CAKI-1", "result": 93.8, "unit": "%"},
      {"measurement": "growth at 10 µM", "setting": "UO-31", "result": 82.5, "unit": "%"},
      {"measurement": "growth at 10 µM", "setting": "PC-3", "result": 80.5, "unit": "%"},
      {"measurement": "growth at 10 µM", "setting": "MCF7 [9]", "result": 93.6, "unit": "%"},
      {"measurement": "growth at 10 µM", "setting": "MDA-MB-231", "result": 91.1, "unit": "%"},
      {"measurement": "growth at 10 µM", "setting": "T47D", "result": 87, "unit": "%"}
    ]}
  ]
}
